Reference: patent US7625897B2, “Non-nucleoside reverse transcriptase inhibitors” (Roche Palo Alto LLC, priority 2005, dated 2009)
Read-outs that look alike come from different tables or passages of the source.

Experiments:
[1] = test system: HIV; assay: Anti-viral Assay (method of Pauwels et al.); type: cell-based; conditions: Human immunodeficiency virus 1; TABLE 3
Experimental: Anti-viral assays were carried out by the method described by R. E. Pauwels et al. J Virol. Methods 1988 20(4):309-322.

[2] = target: HIV-1 RT (Human immunodeficiency virus type 1 group M subtype B, UniProt P03366); assay: HIV Reverse Transcriptase Assay: Inhibitor IC50 determination; type: biochemical
Experimental: HIV Reverse Transcriptase Assay: Inhibitor IC50 determination
HIV-1 RT assay was carried out in 96-well Millipore MultiScreen MADVNOB50 plates using purified recombinant enzyme and a poly(rA)/oligo(dT)16 template-primer in a total volume of 50 μL. The assay constituents were 50 mM Tris/HCl, 50 mM NaCl, 1 mM EDTA, 6 mM MgCl2, 5 μM dTTP, 0.15 μCi [^3H] dTTP, 5 μg/ml poly (rA) pre annealed to 2.5 μg/ml oligo (dT)16 and a range of inhibitor concentrations in a final concentration of 10% DMSO. Reactions were initiated by adding 4 nM HIV-1 RT and after incubation at 37° C. for 30 min, they were stopped by the addition of 50 μl ice cold 20% TCA and allowed to precipitate at 4° C. for 30 min. The precipitates were collected by applying vacuum to the plate and sequentially washing with 3×200 μl of 10% TCA and 2×200 μl 70% ethanol. Finally, the plates were dried and radioactivity counted in a Packard TopCounter after the addition of 25 μl scintillation fluid per well. IC50's were calculated by plotting % inhibition versus log10 inhibitor concentrations.

[3] = TABLE 3, read-out: RT inhibition IC50
[4] = TABLE I, purified recombinant enzyme, poly(rA)/oligo(dT)16 template-primer, read-out: HIV-RT IC50 RT
[5] = TABLE II, purified recombinant enzyme, poly(rA)/oligo(dT)16 template-primer, read-out: HIV-RT IC50 RT

C[C@H]1NC(Cc2ccc(Cl)c(Oc3cc(C#N)cc(C#N)c3)c2F)=NNC1=O [Compound I-5, 5-[6-Chloro-2-fluoro-3-((R)-5-methyl-6-oxo-1,4,5,6-tetrahydro-[1,2,4]triazin-3-ylmethyl)-phenoxy]-isophthalonitrile]
EC50 [1]: 0.0122 µM
melting point: 81.5 to 100 °C
IC50 [2, 3]: 0.032 µM
IC50 [2, 4]: 0.0318 µM

C[C@H]1NC(Cc2ccc(Cl)c(Oc3cc(Cl)cc(C#N)c3)c2F)=NNC1=O [Compound I-15, 3-Chloro-5-[6-chloro-2-fluoro-3-((R)-5-methyl-6-oxo-1,4,5,6-tetrahydro-[1,2,4]triazin-3-ylmethyl)-phenoxy]-benzonitrile]
EC50 [1]: 0.0083 µM
melting point: 158.6 to 159.9 °C
IC50 [2, 3]: 0.011 µM
IC50 [2, 4]: 0.0111 µM

C[C@H]1NC(Cc2ccc(Br)c(Oc3cc(Cl)cc(C#N)c3)c2F)=NNC1=O [Compound I-26]
melting point: 178.2 to 179 °C
IC50 [2, 4]: 0.0066 µM

N#Cc1cc(Cl)cc(Oc2c(Cl)ccc(CC3=NNC(=O)CN3)c2F)c1 [Compound I-28]
melting point: 177.6 to 178 °C
IC50 [2, 4]: 0.143 µM

N#Cc1cc(Cl)cc(Oc2c(Cl)ccc(CC3=NNC(=O)[C@@H](CO)N3)c2F)c1 [Compound I-30]
melting point: 112.5 to 114 °C
IC50 [2, 4]: 0.418 µM

Cc1nc(Cc2ccc(Cl)c(Oc3cccc(C#N)c3)c2)n[nH]c1=O [II-2, 3-[2-Chloro-5-(5-methyl-6-oxo-1,6-dihydro-[1,2,4]triazin-3-ylmethyl)-phenoxy]-benzonitrile]
melting point: 145.3 to 145.8 °C
IC50 [2, 5]: 0.206 µM

O=c1[nH]nc(Cc2ccc(Cl)c(Oc3cccc(Br)c3)c2)nc1-c1ccccc1 [II-3, 3-[3-(3-Bromo-phenoxy)4-chloro-benzyl]-5-phenyl-1H-[1,2,4]triazin-6-one]
melting point: 59.8 to 63.9 °C
IC50 [2, 5]: 0.346 µM

Cc1nc(Cc2ccc(Cl)c(Oc3cc(Br)cc(Br)c3)c2F)n[nH]c1=O [II-4, 3-[4-Chloro-3-(3,5-dibromo-phenoxy)-2-fluoro-benzyl]-5-methyl-1H-[1,2,4]triazin-6-one]
melting point: 180.9 to 183.3 °C
IC50 [2, 5]: 0.137 µM

Cc1nc(Cc2ccc(Cl)c(Oc3cc(C#N)cc(C#N)c3)c2F)n[nH]c1=O [II-5, 5-[6-chloro-2-fluoro-3-(5-methyl-6-oxo-1,6-dihydro-[1,2,4]triazin-3-ylmethyl)-phenoxy]-isophthalonitrile]
melting point: 194.7 to 197.4 °C
IC50 [2, 5]: 0.432 µM
